Measured values from US7074789B2, “Kinase inhibitors” (Amgen Inc., priority 1999, dated 2006).

How the values were obtained:
Format in all cases: biochemical
IGFR-1 = molecular target: T1, IGFR-1 (Homo sapiens, UniProt P08069); assay: Kinase inhibition assay (33P transfer), IGFR-1; settings: Table 2, kinase inhibition class
T1 construct: Kinases are expressed as either kinase domains or full length constructs; made in house

EPHB4 = molecular target: T2, EPHB4 (Homo sapiens, UniProt P54760); assay: Kinase inhibition assay (33P transfer), EPHB4; settings: read-out: EPHB4-1
T2 construct: Kinases are expressed as either kinase domains or full length constructs; made in house
T2 sequence (P54760 16-987): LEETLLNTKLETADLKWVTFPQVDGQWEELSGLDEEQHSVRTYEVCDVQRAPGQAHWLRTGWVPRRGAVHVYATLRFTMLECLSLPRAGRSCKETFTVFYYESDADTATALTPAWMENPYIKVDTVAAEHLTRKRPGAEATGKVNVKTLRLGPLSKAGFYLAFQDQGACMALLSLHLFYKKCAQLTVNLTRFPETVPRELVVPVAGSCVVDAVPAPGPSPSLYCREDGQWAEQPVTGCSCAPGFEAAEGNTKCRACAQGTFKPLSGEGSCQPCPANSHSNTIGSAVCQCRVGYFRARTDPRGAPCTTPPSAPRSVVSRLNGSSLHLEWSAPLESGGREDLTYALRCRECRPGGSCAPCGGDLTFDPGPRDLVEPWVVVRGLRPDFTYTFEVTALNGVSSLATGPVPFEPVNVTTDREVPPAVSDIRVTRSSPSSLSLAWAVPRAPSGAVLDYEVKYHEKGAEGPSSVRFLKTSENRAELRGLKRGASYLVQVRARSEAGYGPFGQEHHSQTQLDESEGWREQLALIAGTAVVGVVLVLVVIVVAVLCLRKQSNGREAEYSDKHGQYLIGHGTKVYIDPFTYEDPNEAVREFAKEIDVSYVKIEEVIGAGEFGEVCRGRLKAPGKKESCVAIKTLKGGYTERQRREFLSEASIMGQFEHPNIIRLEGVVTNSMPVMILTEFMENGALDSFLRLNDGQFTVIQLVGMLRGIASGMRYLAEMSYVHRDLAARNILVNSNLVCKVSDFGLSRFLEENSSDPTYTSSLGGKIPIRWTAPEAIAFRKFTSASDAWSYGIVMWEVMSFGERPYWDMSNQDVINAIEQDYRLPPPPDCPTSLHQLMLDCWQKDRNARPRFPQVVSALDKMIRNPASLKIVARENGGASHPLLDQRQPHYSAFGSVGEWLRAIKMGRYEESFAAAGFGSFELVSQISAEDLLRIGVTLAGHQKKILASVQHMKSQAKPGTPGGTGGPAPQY

AKT = molecular target: T3, AKT (Homo sapiens, UniProt Q9Y243); assay: Kinase inhibition assay (33P transfer), AKT; settings: Table 2, kinase inhibition class; read-out: AKT3-1
T3 construct: Kinases are expressed as either kinase domains or full length constructs; made in house
T3 sequence (Q9Y243 whole entry, the tested form may be a part): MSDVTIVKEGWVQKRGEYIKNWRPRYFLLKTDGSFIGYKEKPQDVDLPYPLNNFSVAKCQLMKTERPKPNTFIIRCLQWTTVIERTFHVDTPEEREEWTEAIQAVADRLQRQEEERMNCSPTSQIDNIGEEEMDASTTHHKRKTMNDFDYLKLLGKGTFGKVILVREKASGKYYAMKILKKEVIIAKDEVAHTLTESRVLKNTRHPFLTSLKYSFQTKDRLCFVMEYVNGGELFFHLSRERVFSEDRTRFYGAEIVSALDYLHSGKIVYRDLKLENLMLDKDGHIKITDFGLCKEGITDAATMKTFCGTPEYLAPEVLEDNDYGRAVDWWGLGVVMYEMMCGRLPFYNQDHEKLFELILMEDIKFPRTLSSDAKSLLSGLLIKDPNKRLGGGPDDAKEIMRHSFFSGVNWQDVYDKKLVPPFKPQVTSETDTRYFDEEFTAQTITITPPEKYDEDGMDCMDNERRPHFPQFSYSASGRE
In short: (§1)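 Each kinase, expressed as a GST- or polyHis-tagged domain or full-length protein, phosphorylated plate-attached poly(Glu,Tyr) 4:1 or poly(Arg,Ser) 3:1 using 33P-ATP. Bound radioactivity was measured by scintillation after a 0.5% phosphoric acid wash.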

Kdr = molecular target: T4, Kdr (Homo sapiens, UniProt P35968); assay: Kinase inhibition assay (33P transfer), Kdr; settings: Table 3; read-out: KDR-1
T4 construct: Kinases are expressed as either kinase domains or full length constructs; made in house
T4 sequence (P35968 20-1356, species assumed): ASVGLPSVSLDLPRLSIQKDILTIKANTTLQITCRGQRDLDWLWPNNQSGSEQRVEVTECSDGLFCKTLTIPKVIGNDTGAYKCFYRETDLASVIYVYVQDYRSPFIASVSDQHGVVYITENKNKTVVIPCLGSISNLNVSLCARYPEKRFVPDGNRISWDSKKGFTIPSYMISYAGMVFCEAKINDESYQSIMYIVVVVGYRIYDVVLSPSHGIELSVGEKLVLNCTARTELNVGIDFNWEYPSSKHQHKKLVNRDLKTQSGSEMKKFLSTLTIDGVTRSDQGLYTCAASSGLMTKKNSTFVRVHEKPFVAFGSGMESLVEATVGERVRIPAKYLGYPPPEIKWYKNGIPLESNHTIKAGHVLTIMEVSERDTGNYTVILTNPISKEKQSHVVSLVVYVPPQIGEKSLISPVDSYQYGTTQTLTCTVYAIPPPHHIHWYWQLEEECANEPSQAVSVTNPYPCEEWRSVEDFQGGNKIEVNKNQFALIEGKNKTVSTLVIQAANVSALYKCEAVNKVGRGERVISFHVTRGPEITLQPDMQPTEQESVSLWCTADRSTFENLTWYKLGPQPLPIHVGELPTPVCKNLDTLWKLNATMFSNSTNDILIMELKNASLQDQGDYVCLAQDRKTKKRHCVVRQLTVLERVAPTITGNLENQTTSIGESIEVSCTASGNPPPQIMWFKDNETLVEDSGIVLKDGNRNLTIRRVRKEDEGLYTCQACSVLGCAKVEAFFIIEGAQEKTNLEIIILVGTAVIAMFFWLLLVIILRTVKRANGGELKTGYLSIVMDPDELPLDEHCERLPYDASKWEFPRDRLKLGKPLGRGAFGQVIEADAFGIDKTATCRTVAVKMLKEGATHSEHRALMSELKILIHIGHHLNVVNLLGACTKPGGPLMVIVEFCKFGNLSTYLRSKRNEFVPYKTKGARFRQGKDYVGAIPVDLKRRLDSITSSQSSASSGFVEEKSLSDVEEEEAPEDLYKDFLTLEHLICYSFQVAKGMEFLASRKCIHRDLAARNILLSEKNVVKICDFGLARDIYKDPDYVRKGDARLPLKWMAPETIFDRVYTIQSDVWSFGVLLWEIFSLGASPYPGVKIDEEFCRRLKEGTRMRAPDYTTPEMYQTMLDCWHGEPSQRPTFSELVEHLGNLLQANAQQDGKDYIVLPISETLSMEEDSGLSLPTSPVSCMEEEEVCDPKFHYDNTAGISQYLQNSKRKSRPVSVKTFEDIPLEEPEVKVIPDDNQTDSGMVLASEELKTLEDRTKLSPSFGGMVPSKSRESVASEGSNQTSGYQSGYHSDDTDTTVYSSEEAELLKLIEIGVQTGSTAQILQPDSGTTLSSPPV
In short: as §1

Tek = molecular target: T5, Tek (Homo sapiens, UniProt Q02763); assay: Kinase inhibition assay (33P transfer), Tek; settings: read-out: Tek-1
T5 construct: Kinases are expressed as either kinase domains or full length constructs; made in house
T5 sequence (Q02763 23-1124, species assumed): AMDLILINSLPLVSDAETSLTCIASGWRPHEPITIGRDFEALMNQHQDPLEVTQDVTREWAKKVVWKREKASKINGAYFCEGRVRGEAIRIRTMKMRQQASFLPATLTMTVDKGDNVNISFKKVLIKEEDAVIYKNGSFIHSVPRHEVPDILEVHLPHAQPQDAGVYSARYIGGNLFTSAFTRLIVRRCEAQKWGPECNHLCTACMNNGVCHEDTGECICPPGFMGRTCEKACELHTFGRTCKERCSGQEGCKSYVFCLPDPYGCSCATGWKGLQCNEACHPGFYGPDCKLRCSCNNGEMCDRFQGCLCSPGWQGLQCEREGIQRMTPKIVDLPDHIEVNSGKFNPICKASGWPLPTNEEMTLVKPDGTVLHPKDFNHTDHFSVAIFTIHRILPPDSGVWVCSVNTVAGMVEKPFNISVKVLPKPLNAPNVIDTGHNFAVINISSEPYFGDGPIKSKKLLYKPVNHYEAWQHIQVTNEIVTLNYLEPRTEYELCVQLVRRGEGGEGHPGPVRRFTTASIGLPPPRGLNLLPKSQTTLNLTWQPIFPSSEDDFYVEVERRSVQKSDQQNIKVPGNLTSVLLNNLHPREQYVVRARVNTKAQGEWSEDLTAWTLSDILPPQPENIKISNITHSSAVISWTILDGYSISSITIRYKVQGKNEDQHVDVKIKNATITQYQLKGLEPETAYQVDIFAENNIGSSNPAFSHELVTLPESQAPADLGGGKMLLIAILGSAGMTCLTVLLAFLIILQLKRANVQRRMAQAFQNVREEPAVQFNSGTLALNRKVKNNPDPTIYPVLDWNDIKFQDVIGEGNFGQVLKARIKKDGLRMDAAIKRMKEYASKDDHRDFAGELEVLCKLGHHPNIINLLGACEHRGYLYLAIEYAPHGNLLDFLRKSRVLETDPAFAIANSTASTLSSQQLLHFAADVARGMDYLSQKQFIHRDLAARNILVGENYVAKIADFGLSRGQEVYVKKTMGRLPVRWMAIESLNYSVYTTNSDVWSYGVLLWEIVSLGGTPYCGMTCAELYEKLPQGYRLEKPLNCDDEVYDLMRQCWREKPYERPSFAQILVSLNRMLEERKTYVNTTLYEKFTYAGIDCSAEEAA
In short: (§2)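 Read-out: scintillation counts of 33P moved from ATP onto synthetic peptide polymer coated on the well surface, after washing with 0.5% phosphoric acid. Enzymes were tagged (GST or polyHistidine) and came from bacterial or insect-cell expression. IC50 marks 50% loss of incorporated label.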

Zap-70 = molecular target: T6, Zap-70 (Homo sapiens, UniProt P43403); assay: Kinase inhibition assay (33P transfer), Zap-70; settings: Table 3; read-out: Zap-1
T6 construct: Kinases are expressed as either kinase domains or full length constructs; made in house
T6 sequence (P43403 1-619): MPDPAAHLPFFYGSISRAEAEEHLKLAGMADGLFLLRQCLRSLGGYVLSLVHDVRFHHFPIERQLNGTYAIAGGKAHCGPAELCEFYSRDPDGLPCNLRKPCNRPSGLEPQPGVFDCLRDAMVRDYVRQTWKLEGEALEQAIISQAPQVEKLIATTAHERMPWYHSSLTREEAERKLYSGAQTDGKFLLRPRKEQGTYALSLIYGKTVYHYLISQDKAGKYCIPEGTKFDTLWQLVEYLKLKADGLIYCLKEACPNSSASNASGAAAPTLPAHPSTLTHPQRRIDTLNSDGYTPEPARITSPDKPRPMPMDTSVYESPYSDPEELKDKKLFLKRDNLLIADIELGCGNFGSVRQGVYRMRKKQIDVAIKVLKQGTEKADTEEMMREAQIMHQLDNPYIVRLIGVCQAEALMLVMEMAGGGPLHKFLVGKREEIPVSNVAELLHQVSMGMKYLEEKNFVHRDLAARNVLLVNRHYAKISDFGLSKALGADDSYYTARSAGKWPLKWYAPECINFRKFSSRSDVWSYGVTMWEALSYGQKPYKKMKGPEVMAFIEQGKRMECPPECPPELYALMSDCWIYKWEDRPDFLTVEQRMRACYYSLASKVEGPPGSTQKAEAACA
In short: as §1

c-Met = molecular target: T7, c-Met (Homo sapiens, UniProt P08581); assay: Kinase inhibition assay (33P transfer), c-Met; settings: Table 2, kinase inhibition class; read-out: Met-1
T7 construct: Kinases are expressed as either kinase domains or full length constructs; made in house
In short: as §2

EGFR = molecular target: T8, EGFR (Homo sapiens, UniProt P00533); assay: Kinase inhibition assay (33P transfer), EGFR; settings: Table 2, kinase inhibition class; read-out: EGFR-1
T8 construct: Kinases are expressed as either kinase domains or full length constructs; made in house
In short: as §2

Itk = molecular target: T9, Itk (Homo sapiens, UniProt Q08881); assay: Kinase inhibition assay (33P transfer), Itk; settings: Table 3; read-out: Itk-1
T9 construct: Kinases are expressed as either kinase domains or full length constructs; made in house
T9 sequence (Q08881 1-620): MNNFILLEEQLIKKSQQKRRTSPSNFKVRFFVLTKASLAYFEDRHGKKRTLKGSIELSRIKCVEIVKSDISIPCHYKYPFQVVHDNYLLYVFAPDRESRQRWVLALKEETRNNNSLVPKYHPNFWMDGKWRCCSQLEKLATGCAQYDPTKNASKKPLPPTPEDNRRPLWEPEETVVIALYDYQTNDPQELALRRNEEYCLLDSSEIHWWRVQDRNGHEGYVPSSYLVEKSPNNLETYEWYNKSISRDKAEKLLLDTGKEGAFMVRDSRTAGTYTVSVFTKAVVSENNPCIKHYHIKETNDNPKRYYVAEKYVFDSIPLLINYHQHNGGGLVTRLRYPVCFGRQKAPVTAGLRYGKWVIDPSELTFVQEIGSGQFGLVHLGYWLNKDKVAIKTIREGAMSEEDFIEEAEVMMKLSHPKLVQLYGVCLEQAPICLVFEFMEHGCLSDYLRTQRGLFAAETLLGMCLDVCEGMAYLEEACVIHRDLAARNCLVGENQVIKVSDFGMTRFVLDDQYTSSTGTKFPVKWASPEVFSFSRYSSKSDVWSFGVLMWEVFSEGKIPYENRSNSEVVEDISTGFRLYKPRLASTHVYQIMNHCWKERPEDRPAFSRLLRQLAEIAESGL
In short: as §2

Lck = molecular target: T10, Lck (Homo sapiens, UniProt P06239); assay: Kinase inhibition assay (33P transfer), Lck; settings: Table 3; read-out: Lck-1
T10 construct: Kinases are expressed as either kinase domains or full length constructs; made in house
T10 sequence (P06239 whole entry, species assumed, the tested form may be a part): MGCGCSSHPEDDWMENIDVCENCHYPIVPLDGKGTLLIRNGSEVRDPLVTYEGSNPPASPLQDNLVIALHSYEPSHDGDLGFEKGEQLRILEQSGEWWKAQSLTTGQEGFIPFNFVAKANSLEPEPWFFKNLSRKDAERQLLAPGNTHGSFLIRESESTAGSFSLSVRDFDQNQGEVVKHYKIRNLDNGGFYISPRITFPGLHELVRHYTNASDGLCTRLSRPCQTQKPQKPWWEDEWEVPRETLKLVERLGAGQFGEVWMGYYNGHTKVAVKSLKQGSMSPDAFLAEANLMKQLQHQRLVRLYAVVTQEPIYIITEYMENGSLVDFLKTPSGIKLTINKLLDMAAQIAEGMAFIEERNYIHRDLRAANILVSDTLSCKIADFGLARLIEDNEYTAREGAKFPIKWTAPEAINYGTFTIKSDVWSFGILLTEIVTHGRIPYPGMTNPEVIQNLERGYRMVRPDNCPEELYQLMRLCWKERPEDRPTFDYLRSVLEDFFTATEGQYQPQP
In short: as §1

T1 sequence (P08069 31-1367): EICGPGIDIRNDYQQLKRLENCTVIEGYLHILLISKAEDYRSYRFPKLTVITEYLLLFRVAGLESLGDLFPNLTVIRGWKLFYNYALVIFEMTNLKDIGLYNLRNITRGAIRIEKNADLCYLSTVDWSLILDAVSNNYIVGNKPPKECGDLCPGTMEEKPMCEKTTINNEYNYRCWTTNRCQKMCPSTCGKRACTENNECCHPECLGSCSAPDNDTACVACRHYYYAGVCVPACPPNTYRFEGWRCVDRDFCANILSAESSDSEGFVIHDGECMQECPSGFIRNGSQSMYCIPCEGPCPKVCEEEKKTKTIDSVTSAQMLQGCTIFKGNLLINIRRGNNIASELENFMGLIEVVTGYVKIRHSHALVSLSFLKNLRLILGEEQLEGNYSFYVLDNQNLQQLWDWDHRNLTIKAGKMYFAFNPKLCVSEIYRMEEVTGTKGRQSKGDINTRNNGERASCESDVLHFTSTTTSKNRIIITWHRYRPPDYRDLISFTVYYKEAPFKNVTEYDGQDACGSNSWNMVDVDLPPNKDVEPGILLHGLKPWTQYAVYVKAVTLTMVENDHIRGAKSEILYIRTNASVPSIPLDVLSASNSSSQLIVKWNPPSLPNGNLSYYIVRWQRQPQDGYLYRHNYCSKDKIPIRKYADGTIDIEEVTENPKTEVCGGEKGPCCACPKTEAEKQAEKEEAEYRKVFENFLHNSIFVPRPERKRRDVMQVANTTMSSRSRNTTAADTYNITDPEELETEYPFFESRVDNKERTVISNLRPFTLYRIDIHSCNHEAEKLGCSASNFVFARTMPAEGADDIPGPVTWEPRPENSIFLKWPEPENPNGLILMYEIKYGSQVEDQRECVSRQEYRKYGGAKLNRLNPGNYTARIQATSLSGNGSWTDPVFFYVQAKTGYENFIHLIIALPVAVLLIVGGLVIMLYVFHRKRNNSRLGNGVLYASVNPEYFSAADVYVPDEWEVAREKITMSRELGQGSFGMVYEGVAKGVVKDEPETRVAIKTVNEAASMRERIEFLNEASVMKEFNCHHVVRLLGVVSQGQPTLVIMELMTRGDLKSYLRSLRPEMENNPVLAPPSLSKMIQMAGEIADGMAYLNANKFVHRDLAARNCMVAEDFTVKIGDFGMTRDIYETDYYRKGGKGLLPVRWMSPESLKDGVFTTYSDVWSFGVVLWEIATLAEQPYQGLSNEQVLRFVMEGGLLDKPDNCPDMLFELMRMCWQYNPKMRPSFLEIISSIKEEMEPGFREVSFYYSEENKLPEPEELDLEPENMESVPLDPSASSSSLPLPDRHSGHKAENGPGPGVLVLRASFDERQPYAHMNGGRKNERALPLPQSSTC

Compound	IC50 (IGFR-1) [µM]	IC50 (EPHB4) [µM]	IC50 (AKT) [µM]	IC50 (Kdr) [µM]	IC50 (Tek) [µM]	IC50 (Zap-70) [µM]	IC50 (c-Met) [µM]	IC50 (EGFR) [µM]	IC50 (Itk) [µM]	IC50 (Lck) [µM]
COc1cc(Nc2ncnc(N3CCN(C)CC3)n2)cc(OC)c1OC [Compound 212]	> 12.5	> 12.5	> 12.5	> 12.5	> 12.5	> 12.5	> 12.5	> 12.5	> 12.5	> 12.5
COc1ccc(Oc2ncnc(Nc3cc(OC)c(OC)c(OC)c3)n2)cc1 [Compound 174]	> 11.7	> 11.7	> 11.7	< 1.04	> 11.7	> 11.7	> 11.7	6.24 to 9.11	> 11.7	> 11.7
COc1cc(Nc2ncnc(N3CCC(O)CC3)n2)cc(OC)c1OC [Compound 208]	> 12.5	> 12.5	> 12.5	1.11 to 6.64	> 12.5	> 12.5	9.68 to 12.5	> 12.5	> 12.5	> 12.5
COc1cc(Nc2ncnc(-c3cc4ccccc4s3)n2)cc(OC)c1OC [Compound 218]	> 11.4	> 11.4	> 11.4	> 11.4	> 11.4	> 11.4	> 11.4	> 11.4	> 11.4	> 11.4
COc1cc(Nc2ncnc(-c3ccsc3)n2)cc(OC)c1OC [Compound 226]	> 13.1	> 13.1	> 13.1	6.97 to 10.2	10.2 to 13.1	10.2 to 13.1	> 13.1	> 13.1	> 13.1	10.2 to 13.1
O=c1[nH]c2ccccc2n1-c1ncnc(Nc2ccc(-c3cnco3)cc2)n1 [Compound 379]	> 12.1	> 12.1	> 12.1	9.42 to 12.1	> 12.1	> 12.1	> 12.1	> 12.1	> 12.1	> 12.1

Results, then the compound that gave them:

IC50 (IGFR-1) [µM]	IC50 (EPHB4) [µM]	IC50 (AKT) [µM]	IC50 (Kdr) [µM]	IC50 (Tek) [µM]	IC50 (Zap-70) [µM]	IC50 (c-Met) [µM]	IC50 (EGFR) [µM]	IC50 (Itk) [µM]	IC50 (Lck) [µM]	Compound
> 9.54	5.09 to 7.42	> 9.54	> 9.54	> 9.54	> 9.54	> 9.54	0.848 to 5.09	> 9.54	5.09 to 7.42	COc1ccc(Nc2ncnc(N(CC(=O)OC(C)(C)C)c3ccc(Cl)cc3)n2)cc1OC [Compound 973]
> 10.3	> 10.3	> 10.3	> 10.3	> 10.3	> 10.3	> 10.3	> 10.3	> 10.3	> 10.3	OCCCNc1cc(-c2ncnc(Nc3cccc(OC(F)(F)C(F)F)c3)n2)ccn1 [Compound 372]
> 9.86	> 9.86	> 9.86	> 9.86	7.67 to 9.86	> 9.86	> 9.86	> 9.86	> 9.86	> 9.86	COc1cc(NC(=O)Nc2ncnc(Nc3cc(OC)c(OC)c(OC)c3)n2)cc(OC)c1 [Compound 22]
> 10.6	> 10.6	> 10.6	> 10.6	> 10.6	> 10.6	> 10.6	> 10.6	> 10.6	8.23 to 10.6	COc1cc(Nc2ncnc(Nc3[nH]ncc3-c3cccs3)n2)cc(OC)c1OC [Compound 368]
1.06 to 6.36	1.06 to 6.36	> 11.9	> 11.9	> 11.9	6.36 to 9.27	> 11.9	> 11.9	> 11.9	6.36 to 9.27	COC(=O)c1ccc(Nc2ncnc(Nc3cc(-c4ccco4)n[nH]3)n2)cc1 [Compound 366]
> 8.93	> 8.93	> 8.93	0.794 to 4.76	> 8.93	> 8.93	> 8.93	> 8.93	> 8.93	4.76 to 6.95	COc1cc(Nc2ncnc(-n3c(Nc4ccc(Cl)cc4)nc4ccccc43)n2)cc(OC)c1OC [Compound 375]
> 8.96	6.97 to 8.96	> 8.96	4.78 to 6.97	6.97 to 8.96	> 8.96	> 8.96	0.797 to 4.78	> 8.96	4.78 to 6.97	COc1cc(Nc2ncnc(N(CC(=O)OC(C)(C)C)c3ccc(Cl)cc3)n2)cc(OC)c1OC [Compound 291]
> 9.37	> 9.37	> 9.37	> 9.37	> 9.37	> 9.37	> 9.37	> 9.37	> 9.37	> 9.37	COc1cc(OC)cc(-c2nnc(Nc3ncnc(Nc4cc(OC)c(OC)c(OC)c4)n3)[nH]2)c1 [Compound 312]
0.919 to 5.51	0.919 to 5.51	> 10.3	0.919 to 5.51	–	> 10.3	8.04 to 10.3	> 10.3	> 10.3	> 10.3	COC(=O)c1cc(Nc2ncnc(Nc3cc(-c4ccco4)n[nH]3)n2)cc(C(=O)OC)c1 [Compound 343]
> 9.6	> 9.6	> 9.6	0.854 to 5.12	–	> 9.6	> 9.6	> 9.6	> 9.6	0.854 to 5.12	COc1cc(Nc2ncnc(Nc3ccc(NC(=O)OC(C)(C)C)cc3)n2)cc(OC)c1OC [Compound 69]
